Key:
[1] = test system: green peach aphid (Myzus persicae (Sulzer)); experiment: whole plant or invertebrate; assay type: in vivo; settings: 144 h, tested at 10 ppm, radish plant, assessed after 6 days
[2] = test system: cotton melon aphid (Aphis gossypii (Glover)); experiment: whole plant or invertebrate; assay type: in vivo; settings: 144 h, okra plant, assessed after 6 days; for mortality at 50 ppm: sprayed at 50 ppm; for mortality at 10 ppm: tested at 10 ppm
Experimental: (§1) Test compounds were formulated using a solution containing 10% acetone, 90% water and 300 ppm Activator 90® non-ionic surfactant (Loveland Products, Loveland, Colorado, USA). The formulated compounds were applied in 1 mL of liquid through an atomizer nozzle positioned 1.27 cm (0.5 inches) above the top of each test unit. Test compounds were sprayed at the rates indicated, and each test was replicated three times.
For evaluating control of cotton melon aphid (Aphis gossypii (Glover)) through contact and/or systemic means, the test unit consisted of a small open container with a 5-day-old okra plant inside. This was pre-infested with 30-40 insects on a piece of leaf according to the cut-leaf method, and the soil of the test unit was covered with a layer of sand.
[…] After spraying, the test units were maintained in a growth chamber for 6 days at 19° C. and 70% relative humidity. Each test unit was then visually assessed for insect mortality.

[3] = test system: green peach aphid (Myzus persicae (Sulzer)); experiment: whole plant or invertebrate; assay type: in vivo; settings: 144 h, sprayed at 50 ppm, radish plant, assessed after 6 days
Experimental: as §1
For evaluating control of green peach aphid (Myzus persicae (Sulzer)) through contact and/or systemic means, the test unit consisted of a small open container with a 12-15-day-old radish plant inside. This was pre-infested by placing on a leaf of the test plant 30-40 aphids on a piece of leaf excised from a culture plant (cut-leaf method). The aphids moved onto the test plant as the leaf piece desiccated. After pre-infestation, the soil of the test unit was covered with a layer of sand.
Test compounds were formulated and sprayed at 250 and/or 50 ppm. After spraying of the formulated test compound, each test unit was allowed to dry for 1 hour and then a black, screened cap was placed on top. The test units were held for 6 days in a growth chamber at 19-21° C. and 50-70% relative humidity. Each test unit was then visually assessed for insect mortality.

[4] = test system: corn planthopper (Peregrinus maidis (Ashmead)); experiment: whole plant or invertebrate; assay type: in vivo; settings: 144 h, corn plant, nymphs, assessed after 6 days; for mortality at 10 ppm: sprayed at 10 ppm; for mortality at 50 ppm: sprayed at 50 ppm
Experimental: as §1
For evaluating control of corn planthopper (Peregrinus maidis (Ashmead)) through contact and/or systemic means, the test unit consisted of a small open container with a 3-4-day-old corn (maize) plant inside. White sand was added to the top of the soil prior to application of the test compound.
(§2) Test compounds were formulated and sprayed at 250 and/or 50 ppm and/or 10 ppm. After spraying of the formulated test compound, the test units were allowed to dry for 1 h before they were post-infested with ˜15-20 nymphs (18-to-21-day-old). A black, screened cap was placed on the top of each test unit, and the test units were held for 6 days in a growth chamber at 22-24° C. and 50-70% relative humidity. Each test unit was then visually assessed for insect mortality.

[5] = test system: potato leafhopper (Empoasca fabae (Harris)); experiment: Test B: control of potato leafhopper, spray, contact and/or systemic; assay type: in vivo; settings: tested at 50 ppm; Soleil bean plant, adults, assessed after 6 days
Experimental: as §1
Each test unit was then visually assessed for insect mortality.

[6] = test system: sweetpotato whitefly (Bemisia tabaci (Gennadius)); experiment: whole plant or invertebrate; assay type: in vivo; settings: 312 h, cotton plant infested with eggs, assessed after 13 days; for mortality at 50 ppm: sprayed at 50 ppm; for mortality at 10 ppm: tested at 10 ppm
Experimental: as §1
For evaluating control of the sweetpotato whitefly (Bemisia tabaci (Gennadius)) through contact and/or systemic means, the test unit consisted of a small open container with a 12-14-day-old cotton plant inside. Prior to the spray application, both cotyledons were removed from the plant, leaving one true leaf for the assay. Adult whiteflies were allowed to lay eggs on the plant and then were removed from the test unit. Cotton plants infested with at least 15 eggs were submitted to the test for spraying.
[…] After spraying, the test units were allowed to dry for 1 hour. The cylinders were then removed, and the units were taken to a growth chamber and held for 13 days at 28° C. and 50-70% relative humidity. Each test unit was then visually assessed for insect mortality.

[7] = test system: Brown Planthopper (Nilaparvata lugens (Stil)); experiment: Test F: control of Brown Planthopper, spray, contact and/or systemic; assay type: in vivo; settings: 120 h, sprayed at 10 ppm, rice stems, nymphs, assessed after 5 days
Experimental: as §1
For evaluating control of Brown Planthopper (Nilaparvata lugens (Stil)) through contact and/or systemic means, the test unit consisted of a small open container with 6-10 25-day-old rice stems inside. White sand was added to the top of the soil prior to application of the test compound.
as §2, with “at” for “at 250 and/or”, “(15-to-17-day-old).” for “(18-to-21-day-old).”, “5” for “6”, “28°” for “22-24°”, “65%” for “50-70%”

SMILES	mortality at 10 ppm [1] [%]	mortality at 50 ppm [2] [%]	mortality at 10 ppm [2] [%]	mortality at 50 ppm [3] [%]	mortality at 10 ppm [4] [%]	mortality at 50 ppm [4] [%]	mortality [5]	mortality at 50 ppm [6] [%]	mortality at 10 ppm [6] [%]	melting point [°C]	mortality at 10 ppm [7] [%]
Fc1cc(Cc2c(Cl)cncc2-n2nccn2)ccc1OC(F)(F)F [Compound 70]	≥ 80	≥ 80	≥ 80	≥ 80	≥ 80	≥ 80	–	–	–	–	–
Fc1cncc(-n2cncn2)c1Cc1ccc(SC(F)(F)F)cc1 [Compound 24]	≥ 80	≥ 80	–	≥ 80	–	–	–	–	–	–	–
Cc1cnn(-c2cncc(F)c2Cc2ccc(OC(F)(F)F)cc2)n1 [Compound 3, 3-fluoro-5-(4-methyltriazol-2-yl)-4-[[4-(trifluoromethoxy)phenyl]methyl]pyridine]	–	–	–	–	–	–	at least 80%	–	–	–	–
FC(F)(F)Sc1ccc(Cc2c(Cl)cncc2-n2cncn2)cc1 [Compound 21]	≥ 80	≥ 80	–	≥ 80	–	–	–	≥ 70	≥ 70	–	–
Fc1cncc(-n2nccn2)c1Cc1ccc(Br)cc1 [Compound 31]	–	–	–	–	–	–	–	–	–	80 to 83	–
FC(F)(F)Sc1ccc(Cc2c(Cl)cncc2-n2cccn2)cc1 [Compound 20]	–	≥ 80	≥ 80	≥ 80	≥ 80	≥ 80	–	≥ 70	≥ 70	–	≥ 80
Fc1cncc(-n2nccn2)c1Cc1ccc(OC(F)(F)F)cc1 [Compound 1, 3-fluoro-5-(triazol-2-yl)-4-[[4(trifluoromethoxy)phenyl]methyl]pyridine]	–	–	–	≥ 80	≥ 80	≥ 80	–	≥ 70	–	–	≥ 80
CC(c1ccc(SC(F)(F)F)cc1)c1c(F)cncc1-n1nccn1 (stereo not shown) [Compound 8]	–	≥ 80	≥ 80	≥ 80	≥ 80	≥ 80	–	–	–	–	≥ 80
Fc1cncc(-n2cccn2)c1Cc1ccc(SC(F)(F)F)cc1 [Compound 19]	–	≥ 80	≥ 80	≥ 80	≥ 80	–	–	≥ 70	≥ 70	–	≥ 80
FC(F)(F)Sc1ccc(Cc2c(Cl)cncc2-n2nccn2)cc1 [Compound 5]	≥ 80	≥ 80	–	≥ 80	≥ 80	≥ 80	–	≥ 70	≥ 70	–	≥ 80
[O-][S+](c1ccc(Cc2ccncc2-n2nccn2)cc1)C(F)(F)F (stereo not shown) [Compound 28]	–	–	–	–	–	–	–	–	–	81 to 84	–
FC(F)(F)Sc1ccc(Cc2c(Br)cncc2-n2nccn2)cc1 [Compound 26]	≥ 80	≥ 80	≥ 80	≥ 80	≥ 80	≥ 80	–	≥ 70	≥ 70	–	≥ 80
Fc1cncc(-n2nccn2)c1Cc1ccc(SC(F)(F)F)cc1 [Compound 2]	≥ 80	≥ 80	≥ 80	≥ 80	≥ 80	≥ 80	–	–	–	–	≥ 80

Source: patent US20240365784A1, “AZOLE COMPOUNDS FOR CONTROLLING INVERTEBRATE PESTS” (FMC Corporation, priority 2021, published 2024)
